Blank lines part the entries; values can stand above or below the molecule they belong to.
Test system: T47D (PIK3CA H1047R) cells
Experiment: pS473 AKT assay with 2.5% FBS, T47D cells
Format: cell-based
Conditions: Homo sapiens, pSer473 AKT, DMEM with 2.5% FBS, 2 h treatment, read-out: T47D_IC50
Method in brief: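 T47D (PIK3CA H1047R) cells were switched to DMEM with 2.5% FBS and exposed to compounds for 2 h. After paraformaldehyde fixation, pSer473 AKT was detected by in-cell ELISA (rabbit primary, HRP anti-rabbit secondary, chemiluminescence); IC50 values were fitted from the concentration series.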

IC50: < 1 µM
SMILES: Cc1cc(C(C)Nc2ccc(Cl)nc2-c2cnn(C)c2)c2c(c1)c(=O)n(C)c1nn(C3CCN(C(=O)N(C)C)CC3)cc21 (stereo not drawn) [Example 211, 4-(9-(1-((6-chloro-2-(1-methyl-1H-pyrazol-4-yl)pyridin-3-yl)amino)ethyl)-4,7-dimethyl-5-oxo-4,5-dihydro-2H-pyrazolo[3,4-c]isoquinolin-2-yl)-N,N-dimethylpiperidine-1-carboxamide]

IC50: < 1 µM
SMILES: Cc1cc(C(C)Nc2ccc(Cl)nc2-c2cnn(C)c2)c2c(c1)c(=O)n(C)c1nn(C3CCN(CC(F)F)CC3)cc21 (stereo not drawn) [Example 212, 9-(1-((6-Chloro-2-(1-methyl-1H-pyrazol-4-yl)pyridin-3-yl)amino)ethyl)-2-(1-(2,2-difluoroethyl)piperidin-4-yl)-4,7-dimethyl-2,4-dihydro-5H-pyrazolo[3,4-c]isoquinolin-5-one]

IC50: < 1 µM
SMILES: [2H]C([2H])([2H])n1c(=O)c2cc(C)cc(C(C)Nc3ccc(Cl)nc3-c3noc(=O)[nH]3)c2c2cnn([C@H]3CCOC3)c21 (stereo partly drawn) [Example 213, 3-[6-Chloro-3-[1-[7-methyl-5-oxo-3-[(3S)-tetrahydrofuran-3-yl]-4-(trideuteriomethyl)pyrazolo[3,4-c]isoquinolin-9-yl]ethylamino]-2-pyridyl]-4H-1,2,4-oxadiazol-5-one]

IC50: < 1 µM
SMILES: [2H]C([2H])([2H])n1c(=O)c2cc(C)cc(C(C)Nc3ccc(Cl)nc3-c3cnn(C)c3)c2c2cnn([C@H]3CCOC3)c21 (stereo partly drawn) [Example 214, 9-(1-((6-chloro-2-(1-methyl-1H-pyrazol-4-yl)pyridin-3-yl)amino)ethyl)-7-methyl-4-(methyl-d3)-3-((S)-tetrahydrofuran-3-yl)-3,4-dihydro-5H-pyrazolo[3,4-c]isoquinolin-5-one]

IC50: < 1 µM
SMILES: CCn1c(=O)c2cc(C)cc(C(C)Nc3ccc(Cl)nc3-c3noc(=O)[nH]3)c2c2cnn([C@H]3CCOC3)c21 (stereo partly drawn) [Example 215, 3-(6-chloro-3-((1-(4-ethyl-7-methyl-5-oxo-3-((S)-tetrahydrofuran-3-yl)-4,5-dihydro-3H-pyrazolo[3,4-c]isoquinolin-9-yl)ethyl)amino)pyridin-2-yl)-1,2,4-oxadiazol-5(4H)-one]

IC50: < 1 µM
SMILES: CCn1c(=O)c2cc(C)cc(C(C)Nc3ccc(Cl)nc3-c3ncn(C)n3)c2c2cnn([C@H]3CCOC3)c21 (stereo partly drawn) [Example 216, 9-(1-((6-chloro-2-(1-methyl-1H-1,2,4-triazol-3-yl)pyridin-3-yl)amino)ethyl)-4-ethyl-7-methyl-3-((S)-tetrahydrofuran-3-yl)-3,4-dihydro-5H-pyrazolo[3,4-c]isoquinolin-5-one]

IC50: < 1 µM
SMILES: CCn1c(=O)c2cc(C)cc(C(C)Nc3ccc(Cl)nc3-c3cnn(C4CCN(C)CC4)c3)c2c2cnn([C@H]3CCOC3)c21 (stereo partly drawn) [Example 217, 9-(1-((6-chloro-2-(1-(1-methylpiperidin-4-yl)-1H-pyrazol-4-yl)pyridin-3-yl)amino)ethyl)-4-ethyl-7-methyl-3-((S)-tetrahydrofuran-3-yl)-3,4-dihydro-5H-pyrazolo[3,4-c]isoquinolin-5-one]

IC50: < 1 µM
SMILES: CCn1c(=O)c2cc(C)cc(C(C)Nc3ccc(Cl)nc3-c3ccnc(C)c3)c2c2cnn([C@H]3CCOC3)c21 (stereo partly drawn) [Example 218, 9-(1-((6-chloro-2′-methyl-[2,4′-bipyridin]-3-yl)amino)ethyl)-4-ethyl-7-methyl-3-((S)-tetrahydrofuran-3-yl)-3,4-dihydro-5H-pyrazolo[3,4-c]isoquinolin-5-one]

IC50: < 1 µM
SMILES: CCn1c(=O)c2cc(C)cc(C(C)Nc3ccc(Cl)nc3-c3ccc(=O)n(C)c3)c2c2cnn([C@H]3CCOC3)c21 (stereo partly drawn) [Example 219, 9-(1-((6-chloro-1′-methyl-6′-oxo-1′,6′-dihydro-[2,3′-bipyridin]-3-yl)amino)ethyl)-4-ethyl-7-methyl-3-((S)-tetrahydrofuran-3-yl)-3,4-dihydro-5H-pyrazolo[3,4-c]isoquinolin-5-one]

The next lines start with the molecule.

SMILES: Cc1cc(C(C)Nc2ccc(Cl)nc2-c2cnn(C)c2)c2c(c1)c(=O)n(C)c1c2cnn1C1CCN(C(=O)CN(C)C)CC1 (stereo not drawn) [Example 196, 9-(1-((6-chloro-2-(1-methyl-1H-pyrazol-4-yl)pyridin-3-yl)amino)ethyl)-3-(1-(dimethylglycyl)piperidin-4-yl)-4,7-dimethyl-3,4-dihydro-5H-pyrazolo[3,4-c]isoquinolin-5-one]
IC50: < 1 µM

SMILES: Cc1cc(C(C)Nc2ccc(Cl)nc2-c2ncn(C)n2)c2c(c1)c(=O)n(C)c1c2cnn1C1CCN(C(=O)[C@@H]2CCCN2C)CC1 (stereo partly drawn) [Example 197, 9-(1-((6-chloro-2-(1-methyl-1H-1,2,4-triazol-3-yl)pyridin-3-yl)amino)ethyl)-4,7-dimethyl-3-(1-(methyl-L-prolyl)piperidin-4-yl)-3,4-dihydro-5H-pyrazolo[3,4-c]isoquinolin-5-one]
IC50: < 1 µM

SMILES: CC(Nc1ccc(Cl)nc1-c1cnn(C)c1)c1cc(C#N)cc2c(=O)n(C)c3c(cnn3C3CCN(C)CC3)c12 (stereo not drawn) [Example 198, 9-(1-((6-Chloro-2-(1-methyl-1H-pyrazol-4-yl)pyridin-3-yl)amino)ethyl)-4-methyl-3-(1-methylpiperidin-4-yl)-5-oxo-4,5-dihydro-3H-pyrazolo[3,4-c]isoquinoline-7-carbonitrile]
IC50: < 1 µM

SMILES: CCn1c(=O)c2cc(C)cc(C(C)Nc3ccc(Cl)nc3-c3ncn(C)n3)c2c2cn(C3CCOCC3)nc21 (stereo not drawn) [Example 199, 9-(1-((6-Chloro-2-(1-methyl-1H-1,2,4-triazol-3-yl)pyridin-3-yl)amino)ethyl)-4-ethyl-7-methyl-2-(tetrahydro-2H-pyran-4-yl)-2,4-dihydro-5H-pyrazolo[3,4-c]isoquinolin-5-one]
IC50: < 1 µM

SMILES: Cc1cc(C(C)Nc2ccc(Cl)nc2-c2noc(=O)[nH]2)c2c(c1)c(=O)n(C)c1nn(C3CCOCC3)cc21 (stereo not drawn) [Example 200, 3-(6-chloro-3-((1-(4,7-dimethyl-5-oxo-2-(tetrahydro-2H-pyran-4-yl)-4,5-dihydro-2H-pyrazolo[3,4-c]isoquinolin-9-yl)ethyl)amino)pyridin-2-yl)-1,2,4-oxadiazol-5(4H)-one]
IC50: < 1 µM

SMILES: CCn1c(=O)c2cc(C)cc(C(C)Nc3ccc(Cl)nc3-c3ncn(C)n3)c2c2cn(C3CCN(C)CC3)nc21 (stereo not drawn) [Example 201, 9-(1-((6-Chloro-2-(1-methyl-1H-1,2,4-triazol-3-yl)pyridin-3-yl)amino)ethyl)-4-ethyl-7-methyl-2-(1-methylpiperidin-4-yl)-2,4-dihydro-5H-pyrazolo[3,4-c]isoquinolin-5-one]
IC50: < 1 µM

SMILES: CCn1c(=O)c2cc(C)cc(C(C)Nc3ccc(Cl)nc3-c3ncn(C)n3)c2c2cn(C3CCN(C(C)=O)CC3)nc21 (stereo not drawn) [Example 202, 2-(1-Acetylpiperidin-4-yl)-9-(1-((6-chloro-2-(1-methyl-1H-1,2,4-triazol-3-yl)pyridin-3-yl)amino)ethyl)-4-ethyl-7-methyl-2,4-dihydro-5H-pyrazolo[3,4-c]isoquinolin-5-one]
IC50: < 1 µM

SMILES: CCn1c(=O)c2cc(C)cc(C(C)Nc3ccc(Cl)nc3-c3ncn(C)n3)c2c2cn(C3CCN(CCO)CC3)nc21 (stereo not drawn) [Example 203, 9-(1-((6-Chloro-2-(1-methyl-1H-1,2,4-triazol-3-yl)pyridin-3-yl)amino)ethyl)-4-ethyl-2-(1-(2-hydroxyethyl)piperidin-4-yl)-7-methyl-2,4-dihydro-5H-pyrazolo[3,4-c]isoquinolin-5-one]
IC50: < 1 µM

SMILES: CCn1c(=O)c2cc(C)cc(C(C)Nc3ccc(Cl)nc3-c3ncn(C)n3)c2c2cn(C3CCN(CCC#N)CC3)nc21 (stereo not drawn) [Example 204, 3-(4-(9-(1-((6-Chloro-2-(1-methyl-1H-1,2,4-triazol-3-yl)pyridin-3-yl)amino)ethyl)-4-ethyl-7-methyl-5-oxo-4,5-dihydro-2H-pyrazolo[3,4-c]isoquinolin-2-yl)piperidin-1-yl)propanenitrile]
IC50: < 1 µM

SMILES: CCn1c(=O)c2cc(C)cc(C(C)Nc3ccc(Cl)nc3-c3ncn(C)n3)c2c2cn(C3CN(C)C3)nc21 (stereo not drawn) [Example 205, 9-(1-((6-Chloro-2-(1-methyl-1H-1,2,4-triazol-3-yl)pyridin-3-yl)amino)ethyl)-4-ethyl-7-methyl-2-(1-methylazetidin-3-yl)-2,4-dihydro-5H-pyrazolo[3,4-c]isoquinolin-5-one]
IC50: < 1 µM

SMILES: Cc1cc(C(C)Nc2ccc(Cl)nc2-c2cnn(C)c2)c2c(c1)c(=O)n(C)c1nn(C3CCN(C)CC3)cc21 (stereo not drawn) [Example 206, 9-(1-((6-Chloro-2-(1-methyl-1H-pyrazol-4-yl)pyridin-3-yl)amino)ethyl)-4,7-dimethyl-2-(1-methylpiperidin-4-yl)-2,4-dihydro-5H-pyrazolo[3,4-c]isoquinolin-5-one]
IC50: < 1 µM

SMILES: Cc1cc(C(C)Nc2ccc(Cl)nc2-c2cnn(C)c2)c2c(c1)c(=O)n(C)c1nn(C3CCN(C(C)C)CC3)cc21 (stereo not drawn) [Example 207, 9-(1-((6-chloro-2-(1-methyl-1H-pyrazol-4-yl)pyridin-3-yl)amino)ethyl)-2-(1-isopropylpiperidin-4-yl)-4,7-dimethyl-2,4-dihydro-5H-pyrazolo[3,4-c]isoquinolin-5-one]
IC50: < 1 µM

SMILES: Cc1cc(C(C)Nc2ccc(Cl)nc2-c2ncn(C)n2)c2c(c1)c(=O)n(C)c1nn(C3CCN(C)CC3)cc21 (stereo not drawn) [Example 208, 9-(1-((6-chloro-2-(1-methyl-1H-1,2,4-triazol-3-yl)pyridin-3-yl)amino)ethyl)-4,7-dimethyl-2-(1-methylpiperidin-4-yl)-2,4-dihydro-5H-pyrazolo[3,4-c]isoquinolin-5-one]
IC50: < 1 µM

SMILES: CC(=O)N1CCC(n2cc3c4c(C(C)Nc5ccc(Cl)nc5-c5cnn(C)c5)cc(C)cc4c(=O)n(C)c3n2)CC1 (stereo not drawn) [Example 209, 2-(1-Acetylpiperidin-4-yl)-9-(1-((6-chloro-2-(1-methyl-1H-pyrazol-4-yl)pyridin-3-yl)amino)ethyl)-4,7-dimethyl-2,4-dihydro-5H-pyrazolo[3,4-c]isoquinolin-5-one]
IC50: < 1 µM

SMILES: CCOC(=O)N1CCC(n2cc3c4c(C(C)Nc5ccc(Cl)nc5-c5cnn(C)c5)cc(C)cc4c(=O)n(C)c3n2)CC1 (stereo not drawn) [Example 210, ethyl 4-(9-(1-((6-chloro-2-(1-methyl-1H-pyrazol-4-yl)pyridin-3-yl)amino)ethyl)-4,7-dimethyl-5-oxo-4,5-dihydro-2H-pyrazolo[3,4-c]isoquinolin-2-yl)piperidine-1-carboxylate]
IC50: < 1 µM

From patent publication US20250270213A1, “PI3Ka INHIBITORS” (Synnovation Therapeutics, Inc., priority 2022, published 2025)
